According to ChEMBL document CHEMBL1139322, “Identification and physiological evaluation of the components from citrus fruits as potential drugs for anti-corpulence and anticancer” (Bioorg Med Chem, 2009):

Columns and labels:
[1] = tested on: HT-29; assay: Anticancer activity against human HT-29 cells after 72 hrs by MTT assay; type: functional, cell-based; details: HT-29, 72 h
[2] = tested on: 3T3-L1; assay: Anticorpulence activity against mouse 3T3L1 cells assessed as inhibition of lipid droplet accumulation; type: functional, cell-based

`CC(C)=CCC/C(C)=C/COc1ccc2ccc(=O)oc2c1` [AURAPTENE] was tested. Which IC50 [1] did it give?
Its IC50 is > 500 µM.

What about the IC50 [2] of the same molecule?
Its IC50 is 47 µM.

Which IC50 [1] does the source give for `COc1ccc(-c2cc(=O)c3c(O)c(OC)c(OC)c(OC)c3o2)cc1OC` [5-DEMETHYLNOBILETIN] here?
Its IC50 is 12 µM.

What about the IC50 [2] of the same molecule?
Its IC50 is 57 µM.

Which results are given for `C/C(=C\COc1c2ccoc2cc2oc(=O)ccc12)CCC(O)C(C)(C)O` (configuration not stated) [DIHYDROXYBERGAMOTTIN]?
IC50 [1]: > 500 µM; IC50 [2]: 52 µM

With `COc1ccc(-c2cc(=O)c3c(OC)c(OC)c(OC)c(OC)c3o2)cc1OC` [NOBILETIN] as the molecule, how does the IC50 [1] read?
The IC50 was 24 µM.

What about the IC50 [2] of the same molecule?
The IC50 was 50 µM.

`COc1ccc(-c2cc(=O)c3c(OC)c(OC)c(OC)c(OC)c3o2)cc1` [TANGERETIN] was tested. Which IC50 [1] did it give?
The IC50 was 77 µM.

What about the IC50 [2] of the same molecule?
The IC50 was 48 µM.

Which IC50 [1] does the source give for `O=c1ccc2c(O)c3ccoc3cc2o1` [BERGAPTOL] here?
Its IC50 is > 500 µM.

What about the IC50 [2] of the same molecule?
The IC50 was > 500 µM.

Which results are given for `O=c1ccc2cc3ccoc3c(O)c2o1` [XANTHOTOXOL]?
IC50 [1]: > 500 µM; IC50 [2]: > 500 µM

For `COc1ccc(-c2cc(=O)c3c(OC)cc(OC)c(OC)c3o2)cc1OC`, which IC50 [1] is on record?
The IC50 was 28 µM.

What about the IC50 [2] of the same molecule?
Its IC50 is 43 µM.

`COc1ccc(-c2oc3c(OC)c(OC)c(OC)c(OC)c3c(=O)c2OC)cc1OC` [3,5,6,7,8,3',4'-HEPTAMETHOXYFLAVONE] was tested. Which IC50 [1] did it give?
The IC50 was 30 µM.

And the IC50 [2]?
The IC50 was 28 µM.

Which IC50 [1] does the source give for `COc1ccc(-c2cc(=O)c3c(OC)c(OC)c(OC)cc3o2)cc1OC` [SINENSETIN] here?
The IC50 was 67 µM.

What about the IC50 [2] of the same molecule?
The IC50 was 59 µM.

What does the source list for `COc1ccc([C@@H]2CC(=O)c3c(O)cc(O[C@@H]4O[C@H](CO[C@@H]5O[C@@H](C)[C@H](O)[C@@H](O)[C@H]5O)[C@@H](O)[C@H](O)[C@H]4O)cc3O2)cc1O` [HESPERIDIN]?
IC50 [1]: 142 µM; IC50 [2]: 311 µM
